Results from article PMC9370283, “New Quinoxaline-Based Derivatives as PARP-1 Inhibitors: Design, Synthesis, Antiproliferative, and Computational Studies” (Molecules, 2022).
Several values for one entry are separate records, joined by “and”; a condition that tells them apart may be missing. Equal entries are not always repeated. Where two headings read alike, the source gives them in different places.

What was measured:
PARP-1 = molecular target: T1, PARP-1 (Homo sapiens, UniProt P09874); experiment: colorimetric 96-well PARP-1 assay kit (BPS Bioscience); format: biochemical; conditions: for IC50: read-out: IC50 (mean ± SEM) PARP-1
T1 construct: purchased BPS Bioscience 80580
T1 sequence (P09874 whole entry): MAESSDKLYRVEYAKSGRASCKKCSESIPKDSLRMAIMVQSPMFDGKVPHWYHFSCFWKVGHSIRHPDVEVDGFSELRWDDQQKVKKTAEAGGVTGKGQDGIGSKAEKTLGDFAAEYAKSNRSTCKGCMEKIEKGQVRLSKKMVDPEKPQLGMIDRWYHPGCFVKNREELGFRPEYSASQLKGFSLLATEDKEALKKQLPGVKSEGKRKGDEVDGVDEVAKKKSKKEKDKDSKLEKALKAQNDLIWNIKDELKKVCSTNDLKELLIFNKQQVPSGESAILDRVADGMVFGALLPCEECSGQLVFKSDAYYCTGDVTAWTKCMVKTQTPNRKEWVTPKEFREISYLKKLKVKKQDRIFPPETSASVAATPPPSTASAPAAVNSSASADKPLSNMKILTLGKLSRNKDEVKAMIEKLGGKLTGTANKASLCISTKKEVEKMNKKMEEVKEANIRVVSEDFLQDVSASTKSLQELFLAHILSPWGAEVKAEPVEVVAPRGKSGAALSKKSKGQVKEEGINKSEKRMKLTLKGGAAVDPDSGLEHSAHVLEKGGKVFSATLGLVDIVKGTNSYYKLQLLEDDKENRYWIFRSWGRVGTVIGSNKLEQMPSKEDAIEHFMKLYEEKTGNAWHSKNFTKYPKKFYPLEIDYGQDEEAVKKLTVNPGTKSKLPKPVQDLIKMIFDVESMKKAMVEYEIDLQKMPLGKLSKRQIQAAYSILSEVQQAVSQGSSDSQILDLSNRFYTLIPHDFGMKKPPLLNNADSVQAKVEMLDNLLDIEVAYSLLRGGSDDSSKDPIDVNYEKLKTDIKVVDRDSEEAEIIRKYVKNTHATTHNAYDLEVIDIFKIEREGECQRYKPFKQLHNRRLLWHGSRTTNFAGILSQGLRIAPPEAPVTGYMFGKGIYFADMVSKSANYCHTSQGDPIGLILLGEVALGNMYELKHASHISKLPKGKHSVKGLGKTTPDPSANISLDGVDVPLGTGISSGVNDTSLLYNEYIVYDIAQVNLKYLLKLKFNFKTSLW

MDA-MB-436 = experiment: in vitro cytotoxicity, MTT assay, MDA-MB-436; conditions: for % viability MDA-MB-436: MTT lab report; for IC50: read-out: IC50 (mean ± SEM) MDA-MB-436; for SI: MDA-MB-436, matches IC50 WI-38 / IC50 MDA-MB-436
WI-38 = experiment: cytotoxicity against normal cells, MTT assay, WI-38; format: cell-based; conditions: Homo sapiens, normal cell line, read-out: IC50 (mean ± SEM) WI-38
Protocol: It has been reported that the frequency and severity of the side effects on normal healthy cells at therapeutic levels are deemed to be critical factors that distinguish different anticancer drugs from each other. […]
to the wells designated as “Blank”. The amount of PARP-1 required for the assay was then calculated. The reaction was initiated by adding 20 µL of diluted PARP-1 en zy me to the wells designated “Positive Control” and “Test Inhibitor Control”. The strip wells were incubated at room temperature for 1 hou r. The strip wells were then wash ed three times with 200 µL of PBST buffer.
Then, 50 µL of 50 times diluted Streptavidin-HRP with blocking buffer was added to each well, and the strips were further incubated at room temperature for 30 min. After washing the wells three times with 200 µL of PBST buffer, HRP colorimetric substrate was added to each well, and the plate was incubated at room temperature until a blue color was developed in the positive control well. Then, the reaction was quenched with 100 µL per well of 2 M sulfuric acid. Carrier solvent (DMSO 5%, v/v) was used as a negative control. All compounds including Ol ap arib were t ested at 5 concentrations (100, 10, 1, 0.1, and 0.01 µM). The optical density (OD) of each well was measured spectrophotometrically at 450 nm with an ELISA microplate reader (ChroMate-4300, FL, USA). The IC50 values were calculated according to the equation for Boltzmann sigmoidal concentration-response curves using the nonlin ear regression fitting model (GraphPad Prism Version 8). All assays were performed in triplicate in 3 repeated experiments. The obtained data are presented as means standard error of the means from 3 independent repeats (n = 3).
4.3.In vitro anticancer screening
The cell lines were purchased from the American Type Culture collection as follows:
Breast Cancer cell lines (MDA-MB-436) and WI38. Cytotoxic activity screening was performed using MTT assay. Exponentially, cells were placed in 10^4 cells/ well for 24 h, and then add fresh med ium containing different concen trations of the tested sample. Serial two-fold dilutions of the tested sample were added using a multichannel pipette. Moreover, all cells were cultivated at 37 °C, with 5% CO2 and 95% humidity. Also, incubation of control cells occurred at 3 7 ° C . […] Rinse the wells using water until no stain. After that, add 30% g lacial acetic acid to all wells with shaking plates on a Microplate reader (TECAN, Inc.) to measure the absorbance, using a test wavelength of 490 nm. Besides, compare the treated samples with the control cell. The cytotoxicity was estimated by IC50 in (μg /mL), the concentration that inhibits 50% of the growth of the examined cell.

[1] = mutant BRCA1 breast cancer cells, MTT

NNS(=O)(=O)c1ccc2[nH]c(=O)c(=O)[nH]c2c1 [Compound 3, 2,3-Dioxo-1,2,3,4-tetrahydroquinoxaline-6-sulfonohydrazide]
fold less PARP-1 inhibitory activity than reference drug Olaparib (PARP-1; ratio of IC50 values): 3 fold | IC50 (PARP-1): 12.9 ± 4.73 nM | melting point: 285 to 287 °C

Cc1cc(O)n(S(=O)(=O)c2ccc3[nH]c(=O)c(=O)[nH]c3c2)n1 [Compound 4, 6-((5-Hydroxy-3-methyl-1H-pyrazol-1-yl)sulfonyl)-1,4-dihydroquinoxaline-2,3-dione]
fold less PARP-1 inhibitory activity than reference drug Olaparib (PARP-1; ratio of IC50 values): ~2 fold | IC50 (PARP-1): 8.73 ± 0.44 nM | % viability MDA-MB-436 (MDA-MB-436; log conc. 0.193 (1.6uM)): 69.76% | % viability MDA-MB-436 (MDA-MB-436; log conc. 0.796 (6.3uM)): 60.12% | % viability MDA-MB-436 (MDA-MB-436; log conc. 1.398 (25uM)): 51.83% | % viability MDA-MB-436 (MDA-MB-436; log conc. 2 (100uM)): 42.01% | % viability MDA-MB-436 (MDA-MB-436; log conc. -0.409 (0.4uM)): 81.83% | IC50 (MDA-MB-436; [1]): 30300 ± 1780 nM

O=C1CC(=O)N(S(=O)(=O)c2ccc3[nH]c(=O)c(=O)[nH]c3c2)N1 [Compound 6, 6-((3,5-Dioxopyrazolidin-1-yl)sulfonyl)-1,4-dihydroquinoxaline-2,3-dione]
fold less PARP-1 inhibitory activity than reference drug Olaparib (PARP-1; ratio of IC50 values): ~3 fold | IC50 (PARP-1): 13.3 ± 0.68 nM | melting point: 270 to 272 °C

O=C1CCC(=O)N1NS(=O)(=O)c1ccc2[nH]c(=O)c(=O)[nH]c2c1 [Compound 7a, N-(2,5-dioxopyrrolidin-1-yl)-2,3-dioxo-1,2,3,4-tetrahydroquinoxaline-6-sulfonamide]
IC50 (PARP-1): 57.1 ± 2.91 nM | melting point: 292 to 294 °C

O=C1C=CC(=O)N1NS(=O)(=O)c1ccc2[nH]c(=O)c(=O)[nH]c2c1 [Compound 7b, N-(2,5-dioxo-2,5-dihydro-1H-pyrrol-1-yl)-2,3-dioxo-1,2,3,4-tetrahydroquinoxaline-6-sulfonamide]
IC50 (PARP-1): 35.8 ± 1.8 nM | melting point: 295 to 297 °C

O=C1c2ccccc2C(=O)N1NS(=O)(=O)c1ccc2[nH]c(=O)c(=O)[nH]c2c1 [Compound 7c, N-(1,3-dioxoisoindolin-2-yl)-2,3-dioxo-1,2,3,4-tetrahydroquinoxaline-6-sulfonamide]
IC50 (PARP-1): 43.4 ± 0.1 nM | melting point: 207 to 209 °C

COc1ccc(NC(=S)NNS(=O)(=O)c2ccc3[nH]c(=O)c(=O)[nH]c3c2)cc1 [Compound 8a, 2-((2,3-Dioxo-1,2,3,4-tetrahydroquinoxalin-6-yl)sulfonyl)-N-(4-methoxyphenyl) Hydrazine-1-carbothioamide]
fold higher PARP-1 inhibitory activity than Olaparib (PARP-1; ratio of IC50 values): ~2 fold | IC50 (PARP-1): 2.31 ± 0.3 nM | SI (MDA-MB-436): 6.58 | % viability MDA-MB-436 (MDA-MB-436; log conc. 0.193 (1.6uM)): 61.23% | % viability MDA-MB-436 (MDA-MB-436; log conc. 0.796 (6.3uM)): 53.52% | % viability MDA-MB-436 (MDA-MB-436; log conc. 1.398 (25uM)): 43.91% | % viability MDA-MB-436 (MDA-MB-436; log conc. 2 (100uM)): 35.79% | % viability MDA-MB-436 (MDA-MB-436; log conc. -0.409 (0.4uM)): 73.41% | IC50 (MDA-MB-436; [1]): 10700 ± 630 nM | IC50 (WI-38): 70460 ± 430 nM

O=C(NC(=S)NNS(=O)(=O)c1ccc2[nH]c(=O)c(=O)[nH]c2c1)c1ccccc1 [Compound 8b, N-(2-((2,3-dioxo-1,2,3,4-tetrahydroquinoxalin-6-yl)sulfonyl)hydrazine-1-carbonothioyl)benzamide]
fold less PARP-1 inhibitory activity than reference drug Olaparib (PARP-1; ratio of IC50 values): 2.5 fold | IC50 (PARP-1): 11.1 ± 0.56 nM | melting point: 265 to 267 °C

COc1ccc(-n2c(=O)cc(O)n(NS(=O)(=O)c3ccc4[nH]c(=O)c(=O)[nH]c4c3)c2=S)cc1 [Compound 9a, N-(6-hydroxy-3-(4-methoxyphenyl)-4-oxo-2-thioxo-3,4-dihydropyrimidin-1(2H)-yl)-2,3-dioxo-1,2,3,4-tetrahydroquinoxaline-6-sulfonamide]
IC50 (PARP-1): 57.4 ± 2.9 nM | melting point: 205 to 207 °C

O=C(c1ccccc1)n1c(=O)cc(O)n(NS(=O)(=O)c2ccc3[nH]c(=O)c(=O)[nH]c3c2)c1=S [Compound 9b, N-(3-benzoyl-6-hydroxy-4-oxo-2-thioxo-3,4-dihydropyrimidin-1(2H)-yl)-2,3-dioxo-1,2,3,4-tetrahydroquinoxaline-6-sulfonamide]
IC50 (PARP-1): 35.7 ± 1.82 nM | melting point: 270 to 272 °C

COc1ccc(-n2c(C)csc2=NNS(=O)(=O)c2ccc3[nH]c(=O)c(=O)[nH]c3c2)cc1 [Compound 10a, N′-(3-(4-methoxyphenyl)-4-methylthiazol-2(3H)-ylidene)-2,3-dioxo-1,2,3,4-tetrahydroquinoxaline-6-sulfonohydrazide]
IC50 (PARP-1): 21.6 ± 1.1 nM | melting point: 130 to 132 °C

Cc1csc(=NNS(=O)(=O)c2ccc3[nH]c(=O)c(=O)[nH]c3c2)n1C(=O)c1ccccc1 [Compound 10b, N’-(3-benzoyl-4-methylthiazol-2(3H)-ylidene)-2,3-dioxo-1,2,3,4-tetrahydroquinoxaline-6-sulfonohydrazide]
IC50 (PARP-1): 6.35 ± 0.32 nM | SI (MDA-MB-436): 7.86 | % viability MDA-MB-436 (MDA-MB-436; log conc. 0.193 (1.6uM)): 65.24% | % viability MDA-MB-436 (MDA-MB-436; log conc. 0.796 (6.3uM)): 52.38% | % viability MDA-MB-436 (MDA-MB-436; log conc. 1.398 (25uM)): 43.29% | % viability MDA-MB-436 (MDA-MB-436; log conc. 2 (100uM)): 32.38% | % viability MDA-MB-436 (MDA-MB-436; log conc. -0.409 (0.4uM)): 72.68% | IC50 (MDA-MB-436; [1]): 9620 ± 560 nM | IC50 (WI-38): 75660 ± 510 nM

COc1ccc(-n2c(C)c(C(C)=O)sc2=NNS(=O)(=O)c2ccc3[nH]c(=O)c(=O)[nH]c3c2)cc1 [Compound 11a, N’-(5-acetyl-3-(4-methoxyphenyl)-4-methylthiazol-2(3H)-ylidene)-2,3-dioxo-1,2,3,4-tetrahydroquinoxaline-6-sulfonohydrazide]
IC50 (PARP-1): 19.4 ± 0.99 nM | melting point: 185 to 187 °C

CC(=O)c1sc(=NNS(=O)(=O)c2ccc3[nH]c(=O)c(=O)[nH]c3c2)n(C(=O)c2ccccc2)c1C [Compound 11b, N’-(5-acetyl-3-benzoyl-4-methylthiazol-2(3H)-ylidene)-2,3-dioxo-1,2,3,4-tetrahydro Quinoxaline-6-sulfonohydrazide]
IC50 (PARP-1): 8.25 ± 0.42 nM | SI (MDA-MB-436): 6.96 | % viability MDA-MB-436 (MDA-MB-436; log conc. 0.193 (1.6uM)): 62.03% | % viability MDA-MB-436 (MDA-MB-436; log conc. 0.796 (6.3uM)): 55.11% | % viability MDA-MB-436 (MDA-MB-436; log conc. 1.398 (25uM)): 44.77% | % viability MDA-MB-436 (MDA-MB-436; log conc. 2 (100uM)): 35.26% | % viability MDA-MB-436 (MDA-MB-436; log conc. -0.409 (0.4uM)): 73.47% | IC50 (MDA-MB-436; [1]): 11500 ± 670 nM | IC50 (WI-38): 80100 ± 820 nM

COc1ccc(N2C(=O)CSC2=NNS(=O)(=O)c2ccc3[nH]c(=O)c(=O)[nH]c3c2)cc1 [Compound 12a, N’-(3-(4-methoxyphenyl)-4-oxothiazolidin-2-ylidene)-2,3-dioxo-1,2,3,4-tetrahydro quinoxaline-6-sulfonohydrazide]
IC50 (PARP-1): 36.1 ± 1.84 nM | melting point: 292 to 294 °C

O=C1CSC(=NNS(=O)(=O)c2ccc3[nH]c(=O)c(=O)[nH]c3c2)N1C(=O)c1ccccc1 [Compound 12b, N’-(3-benzoyl-4-oxothiazolidin-2-ylidene)-2,3-dioxo-1,2,3,4-tetrahydroquinoxaline-6-sulfonohydrazide]
IC50 (PARP-1): 40.5 ± 2.06 nM | melting point: 290 to 292 °C

O=C(c1cc(Cc2n[nH]c(=O)c3ccccc23)ccc1F)N1CCN(C(=O)C2CC2)CC1 [Olaparib, reference compound]
IC50 (MDA-MB-436): 8900 nM and 8630 nM
